Earlier results in patent US20080279967A1, “Composition and method for increasing the metabolism of free fatty acids and facilitating a favorable blood lipid” (priority 2007, published 2008).

Test system: rats
Details: administration to rats

**Q.** What does the source list for `C[N+](C)(C)CCCC(=O)[O-]` [γ-butyrobetaine, 4-trimethylamniobutyrate]?
**A.** nitric oxide concentrations in blood: increases; vasodilating activities: elevated
